Values of other authors, collected in patent publication US10021900B2, “Carbohydrate composition and food and beverage producing gradual rise in blood glucose levels” (MATSUTANI CHEMICAL INDUSTRY CO., LTD., priority 2011, dated 2018).

Conditions: 10% by mass aqueous solution

Structure (SMILES): OC[C@H]1O[C@H](OC[C@H]2OC(O)(CO)[C@@H](O)[C@@H]2O)[C@H](O)[C@@H](O)[C@@H]1O (stereo partly shown) [isomaltulose]
- osmotic pressure: about 340 mOSMOL/kg
